Reference: US9969723B2, “3-(4-(benzyloxy)phenyl)hex-4-ynoic acid derivative, method of preparing same and pharmaceutical composition for preventing and treating metabolic disease including same as effective ingredient” (HYUNDAI PHARM CO., LTD, priority 2014, dated 2018)
Read-outs that look alike come from different tables or passages of the source.

Legend:
[1] = target: CYP2C19 (Homo sapiens (Human), UniProt P33261); test: CYP inhibition (BD GENTEST kit); assay type: in vitro ADME; conditions: pH 7.4, read-out: CYP inhibition (%) 2C19
CYP2C19, sequence (P33261 whole entry): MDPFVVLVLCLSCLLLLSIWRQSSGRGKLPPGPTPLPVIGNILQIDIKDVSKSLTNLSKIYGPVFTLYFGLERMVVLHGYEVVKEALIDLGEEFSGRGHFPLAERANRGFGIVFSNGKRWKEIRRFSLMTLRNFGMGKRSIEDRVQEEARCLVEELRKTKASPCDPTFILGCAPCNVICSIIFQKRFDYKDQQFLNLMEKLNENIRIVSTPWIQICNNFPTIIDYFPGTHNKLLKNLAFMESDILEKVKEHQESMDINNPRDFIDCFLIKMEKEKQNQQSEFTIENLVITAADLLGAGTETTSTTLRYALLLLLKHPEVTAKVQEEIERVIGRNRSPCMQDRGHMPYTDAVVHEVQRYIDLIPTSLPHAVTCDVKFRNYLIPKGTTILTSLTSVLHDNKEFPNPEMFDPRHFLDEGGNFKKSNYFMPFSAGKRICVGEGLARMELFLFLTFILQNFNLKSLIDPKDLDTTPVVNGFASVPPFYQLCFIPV
Description: (§1) CYP is the enzyme involved in drug metabolism. So, the inhibition of this enzyme can change the prediction of dose of a drug and toxicity caused by the co-treatment with other drugs. Therefore, the inventors measured the inhibitory effect of the compounds of Examples of the invention on endogenous CYP3A4, CYP2C9, CYP1A2, CYP2D6, and CYP2C19. […] To prepare the Invitrogen kit, the test sample was diluted in distilled water at 2.5× of the final experimental concentration.
(§2) The test sample for BD GENTEST kit was diluted in acetonitrile at 50× of the final experimental concentration. NADPH-coenzyme mixture was prepared by diluting the coenzyme, G6PDH, and regulatory protein included in the kit with distilled water at the concentration instructed by the kit. The prepared 50× sample (4 μL) and the NADPH-coenzyme mixture (96 μL) were mixed in each well of U-bottom 96-well plate, followed by pre-culture for 10 minutes in a 37° C. incubator. Enzyme/substrate mixed solution was prepared by diluting the buffer (0.5 M potassium phosphate, pH 7.4), each CYP450 enzyme/substrate mixed solution included in the kit with distilled water at the instructed concentration. Upon completion of the pre-culture, 100 μL of the enzyme/substrate mixed solution was added in each well of the plate, followed by culture in a 37° C. incubator for 15 minutes (CYP 1A2), 30 minutes (CYP 3A4 and CYP 2C19) or 1 and half hours (CYP 2C9). […] The values obtained above were converted into % as the inhibition rate of the sample by the value of the non-treated group.

[2] = target: CYP1A2 (Homo sapiens (Human), UniProt P05177); test: CYP inhibition (BD GENTEST kit); assay type: in vitro ADME; conditions: pH 7.4
CYP1A2, sequence (P05177 whole entry): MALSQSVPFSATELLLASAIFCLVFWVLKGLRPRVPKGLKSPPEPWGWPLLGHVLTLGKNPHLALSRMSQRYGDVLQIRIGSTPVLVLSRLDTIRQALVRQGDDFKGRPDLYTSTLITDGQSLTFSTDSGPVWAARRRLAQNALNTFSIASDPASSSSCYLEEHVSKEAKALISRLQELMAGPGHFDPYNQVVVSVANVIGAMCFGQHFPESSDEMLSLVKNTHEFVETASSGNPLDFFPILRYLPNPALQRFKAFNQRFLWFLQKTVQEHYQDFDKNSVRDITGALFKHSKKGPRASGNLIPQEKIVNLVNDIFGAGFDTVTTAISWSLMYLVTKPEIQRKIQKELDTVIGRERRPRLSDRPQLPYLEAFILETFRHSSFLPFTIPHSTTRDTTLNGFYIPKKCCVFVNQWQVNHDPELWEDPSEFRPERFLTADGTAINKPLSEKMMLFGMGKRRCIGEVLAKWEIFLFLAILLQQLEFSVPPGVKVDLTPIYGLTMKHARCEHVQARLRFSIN
Description: as §1, §2

[3] = target: CYP2C9 (Homo sapiens (Human), UniProt P11712); test: CYP inhibition (BD GENTEST kit); assay type: in vitro ADME; conditions: pH 7.4, read-out: CYP inhibition (%) 2C9
CYP2C9, sequence (P11712 whole entry): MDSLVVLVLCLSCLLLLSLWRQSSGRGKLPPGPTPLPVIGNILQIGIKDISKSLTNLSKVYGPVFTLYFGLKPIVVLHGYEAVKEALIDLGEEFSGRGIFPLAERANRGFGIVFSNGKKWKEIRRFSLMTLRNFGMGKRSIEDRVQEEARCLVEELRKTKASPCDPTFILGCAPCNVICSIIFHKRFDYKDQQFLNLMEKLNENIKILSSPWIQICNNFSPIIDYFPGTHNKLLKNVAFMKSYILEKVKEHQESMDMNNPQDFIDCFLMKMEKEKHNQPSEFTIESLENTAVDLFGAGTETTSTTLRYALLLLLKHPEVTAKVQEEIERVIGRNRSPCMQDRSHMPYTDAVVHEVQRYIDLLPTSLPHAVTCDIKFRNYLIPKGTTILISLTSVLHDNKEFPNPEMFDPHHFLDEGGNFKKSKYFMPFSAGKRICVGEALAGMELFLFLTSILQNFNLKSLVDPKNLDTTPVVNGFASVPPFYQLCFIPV
Description: as §1, §2

[4] = target: T1, GPR40 (Homo sapiens (Human), UniProt O14842); test: GPR40 protein activity by intracellular calcium concentration (Fluo-4, Flexstation 3) in transfected HEK-293 cells; assay type: cell-based; conditions: HEK-293 cells transfected with human GPR40, intracellular calcium
T1 sequence (O14842 whole entry): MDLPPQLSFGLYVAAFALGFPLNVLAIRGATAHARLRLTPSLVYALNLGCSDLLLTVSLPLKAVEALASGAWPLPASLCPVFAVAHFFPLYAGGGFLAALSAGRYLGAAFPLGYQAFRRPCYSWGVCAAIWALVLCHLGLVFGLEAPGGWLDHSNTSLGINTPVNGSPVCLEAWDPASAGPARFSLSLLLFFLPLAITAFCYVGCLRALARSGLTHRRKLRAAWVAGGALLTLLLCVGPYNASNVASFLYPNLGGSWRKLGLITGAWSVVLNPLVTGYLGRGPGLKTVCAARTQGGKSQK
Description: The GPR40 protein activity according to the novel 3-(4-(benzyloxy)phenyl)hex-4-inoic acid derivative of the present invention was measured by investigating the changes in intracellular calcium concentration affected by the GRP40 activation. First, HEK-293 cells were transfected with human GPR40 DNA (Origene, RC218370) by using Fugene HD (Promega, E2311). […] 24 hours later, the cell culture medium was replaced with Dulbecco's Modified Eagle Medium (DMEM, 50 μl/well) supplemented with 1% fetal bovine serum (FBS). To measure the calcium concentration, 50 μl of Fluo-4 reagent (Invitrogen, F10471) was added to each well, followed by culture in a 37° C. incubator for 2 hours. […] 2 hours after the culture began, those prepared samples were automatically injected to the cells by using Flexstation 3 (Molecular Devices). Then, intracellular calcium concentration was measured for 120 seconds by using SoftMax® Pro software. At this time, dimethylsulfoxide (DMSO) was injected to the cells for the non-treated group, followed by measuring the calcium concentration therein. The GPR40 protein activity was calculated by the below mathematical formula 1 with the results of calcium concentration measurement. GPR40 activity=(intracellular calcium concentration increased by the sample)/(intracellular calcium concentration of the non-treated group)×100 [Mathematical Formula 1]

[5] = target: CYP2D6 (Homo sapiens (Human), UniProt P10635); test: CYP inhibition (Invitrogen Vivid kit); assay type: in vitro ADME; conditions: probe Vivid CYP450 substrate, read-out: CYP inhibition (%) 2D6
CYP2D6, sequence (P10635 whole entry): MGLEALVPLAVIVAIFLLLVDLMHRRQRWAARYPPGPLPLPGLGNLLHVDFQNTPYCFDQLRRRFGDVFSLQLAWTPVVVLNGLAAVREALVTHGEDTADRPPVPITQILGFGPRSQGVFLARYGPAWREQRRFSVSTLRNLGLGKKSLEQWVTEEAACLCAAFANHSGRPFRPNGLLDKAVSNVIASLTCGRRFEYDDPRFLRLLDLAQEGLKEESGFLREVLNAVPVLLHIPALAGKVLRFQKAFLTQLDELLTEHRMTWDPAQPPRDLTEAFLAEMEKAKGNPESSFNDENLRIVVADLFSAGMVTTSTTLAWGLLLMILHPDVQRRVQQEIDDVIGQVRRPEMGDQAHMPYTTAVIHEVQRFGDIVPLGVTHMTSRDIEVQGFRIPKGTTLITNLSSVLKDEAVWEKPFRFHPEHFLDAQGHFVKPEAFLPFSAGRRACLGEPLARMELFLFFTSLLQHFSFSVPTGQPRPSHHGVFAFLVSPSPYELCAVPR
Text: (§3) CYP is the enzyme involved in drug metabolism. So, the inhibition of this enzyme can change the prediction of dose of a drug and toxicity caused by the co-treatment with other drugs. Therefore, the inventors measured the inhibitory effect of the compounds of Examples of the invention on endogenous CYP3A4, CYP2C9, CYP1A2, CYP2D6, and CYP2C19. At this time, Invitrogen (P2862) was used as the CYP2D6 inhibition kit, and BD GENTEST (459100, 459300, 459400, 459500) was used as the CYP1A2, CYP2C9, CYP2C19, and CYP3A4 inhibition kit. To prepare the Invitrogen kit, the test sample was diluted in distilled water at 2.5× of the final experimental concentration.
P450 BACULOSOMES® reagent and reproducer (100×) included in Invitrogen kit were diluted in Vivid® CYP450 reaction buffer (2×) at the concentration that matched the target CYP450. The prepared 2.5× sample (80 μL) and the diluted P450 BACULOSOMES® reagent mixture (100 μL) were mixed in each well of U-bottom 96-well plate, followed by pre-culture for 20 minutes. Vivid® CYP450 substrate and NADP+ (100×) were diluted in Vivid® CYP450 reaction buffer (2×) at the concentration that matched the target CYP450 and the substrate. Upon completion of the pre-culture, substrate-NADP (nicotinamide adenine dinucleotide phosphate) mixed solution (20 μL) was added thereto, followed by reaction for 1 hour. Upon completion of the reaction, the reactant was transferred onto the white plate, and then fluorescence was measured with a microplate reader (CYP 2D6 excitation wavelength: 400 nm, absorption wavelength: 502 nm). […]

[6] = target: CYP3A4 (Homo sapiens (Human), UniProt P08684); test: CYP inhibition (BD GENTEST kit); assay type: in vitro ADME; conditions: pH 7.4, read-out: CYP inhibition (%) 3A4
CYP3A4, sequence (P08684 whole entry): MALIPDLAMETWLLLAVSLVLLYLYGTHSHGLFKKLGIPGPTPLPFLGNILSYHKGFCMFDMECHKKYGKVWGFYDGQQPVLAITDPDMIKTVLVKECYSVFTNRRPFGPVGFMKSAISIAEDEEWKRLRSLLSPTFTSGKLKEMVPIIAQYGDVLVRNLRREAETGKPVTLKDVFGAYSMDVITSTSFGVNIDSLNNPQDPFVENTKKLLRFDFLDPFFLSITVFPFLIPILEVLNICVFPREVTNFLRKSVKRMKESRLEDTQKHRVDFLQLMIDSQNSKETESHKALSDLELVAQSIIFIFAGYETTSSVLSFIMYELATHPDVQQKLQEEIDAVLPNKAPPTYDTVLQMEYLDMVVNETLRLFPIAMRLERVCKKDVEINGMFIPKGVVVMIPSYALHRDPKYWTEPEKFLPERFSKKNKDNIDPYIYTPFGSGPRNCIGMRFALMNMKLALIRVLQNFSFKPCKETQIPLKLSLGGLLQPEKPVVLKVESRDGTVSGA
Text: as §3
The test sample for BD GENTEST kit was diluted in acetonitrile at 50× of the final experimental concentration. NADPH-coenzyme mixture was prepared by diluting the coenzyme, G6PDH, and regulatory protein included in the kit with distilled water at the concentration instructed by the kit. The prepared 50× sample (4 μL) and the NADPH-coenzyme mixture (96 μL) were mixed in each well of U-bottom 96-well plate, followed by pre-culture for 10 minutes in a 37° C. incubator. Enzyme/substrate mixed solution was prepared by diluting the buffer (0.5 M potassium phosphate, pH 7.4), each CYP450 enzyme/substrate mixed solution included in the kit with distilled water at the instructed concentration. Upon completion of the pre-culture, 100 μL of the enzyme/substrate mixed solution was added in each well of the plate, followed by culture in a 37° C. incubator for 15 minutes (CYP 1A2), 30 minutes (CYP 3A4 and CYP 2C19) or 1 and half hours (CYP 2C9). Upon completion of the reaction, the reactant was transferred onto the white plate, and then fluorescence was measured with a microplate reader (CYP 1A2 and CYP 2C19 excitation wavelength: 410 nm, absorption wavelength: 460 nm; CYP 2C9 and CYP 3A4 excitation wavelength: 409 nm, absorption wavelength: 530 nm). The values obtained above were converted into % as the inhibition rate of the sample by the value of the non-treated group.

[7] = target: T1, GPR40; test: Calcium flux GPCR agonist assay (Millipore GPCR profiler, FLIPR TETRA)
Description: The compounds of Examples of the invention dissolved in DMSO (dimethyl sulfoxide), PBS (phosphate buffered saline), and DW (distilled water), etc, were diluted three-times with EMD Millipore's GPCR profiler assay buffer. […] Each well was filled with EMD Millipore's GPCR profiler assay buffer. The said EMD Millipore's GPCR profiler assay buffer was HBSS (Hanks Balanced Salt Solution) containing 20 mM HEPES (4-(2-hydroxyethyl)-1-piperazineethanesulfonic acid) and 2.5 mM Probenecid (4-(dipropylsulfamoyl)benzoic acid), whose pH was regulated as 7.4.
The compounds of Examples were duplicated at each concentration. […] Agonist assay was performed by using FLIPR^TETRA. Fluorescence and luminescence baseline were measured. […] To measure the activity of those compounds of Examples, GPCR activity assay was performed for 180 seconds.
When the assay data were not satisfactory, an additional experiment was performed.
All the concentration dependent graphs were made by using GraphPad Prism. The graph was modified by Sigmoidal dose response.

[8] = CYP2C19 enzyme of BD GENTEST inhibition kit
[9] = CYP2C9 enzyme of BD GENTEST inhibition kit
[10] = P450 BACULOSOMES reagent (Invitrogen Vivid CYP2D6 kit P2862)
[11] = CYP3A4 enzyme of BD GENTEST inhibition kit
[12] = CYP2C19 enzyme of the BD GENTEST CYP2C19 inhibition kit
[13] = CYP2C9 enzyme of the BD GENTEST CYP2C9 inhibition kit
[14] = CYP2D6 P450 BACULOSOMES reagent (Invitrogen kit P2862)
[15] = CYP3A4 enzyme of the BD GENTEST CYP3A4 inhibition kit

Row | SMILES | inhibition at 30 min, 10 µM [1, 8] [%] | inhibition at 15 min, 10 µM [2] [%] | inhibition at 1.5 h, 10 µM [3, 9] [%] | EC50 ([4]; read-out: EC50) [µM] | EC50 ([4]; values in text, read-out: EC50, concentration promoting activation of GPR40 protein by 50%) [µM] | inhibition at 1 h, 10 µM [5, 10] [%] | inhibition at 30 min, 10 µM [6, 11] [%] | EC50 [7] [µM] | inhibition at 30 min, 10 µM [1, 12] [%] | inhibition at 1.5 h, 10 µM [3, 13] [%] | inhibition at 1 h, 10 µM [5, 14] [%] | inhibition at 30 min, 10 µM [6, 15] [%]
1 | CC#C[C@@H](CC(=O)O)c1ccc(OCc2cccc(C3=CCC4(CC3)OCCO4)c2)cc1 [Example 7, (3S)-3-(4-(3-(1,4-dioxaspiro[4,5]dec-7-en-8-yl)benzyloxy)phenyl)hex-4-ynoic acid] | 3.7 | 4.3 | 47.1 | < 0.2 | < 0.2 | 13.9 | 15.5 | – | – | – | – | –
2 | CC#C[C@@H](CC(=O)O)c1ccc(OCc2ccc(CN3CCC4(C=Cc5ccccc54)CC3)cc2)cc1 [Comparative Example 2, (3S)-3-(4-{[4-(1′H-spiro[indene-1,4′-piperidine]-1′-ylmethyl)benzyl]oxy}phenyl)hex-4-inoic acid, reference compound] | 34.5 | 0 | 43.9 | > 0.3 | – | 63.2 | 42 | – | – | – | – | –
3 | CC#C[C@@H](CC(=O)O)c1ccc(OCc2ccc(CN3CCC(c4ccccc4)CC3)cc2)cc1 [Example 26, (S)-3-(4-(4-((4-phenylpiperidine-1-yl)methyl)benzyloxy)phenyl)hex-4-ynoic acid] | 13.2 | 0.7 | 31.5 | > 0.3 | – | 2.3 | 14.1 | – | – | – | – | –
4 | O=C(O)CCc1ccc(NCc2cccc(Oc3ccccc3)c2)cc1 [Comparative Example 3, 4-(3-phenoxybenzylamino)phenylpropionic acid, reference compound] | – | – | – | – | – | – | – | 0.027 | – | – | – | –
5 | CC#C[C@@H](CC(=O)O)c1ccc(OCc2ccc(CN3CCc4ccccc4C3)cc2)cc1 [Example 21, (S)-3-(4-(4-((3,4-dihydroisoquinoline-2(1H)-yl)methyl)benzyloxy)phenyl)hex-4-ynoic acid] | 46.5 | 4 | 75.9 | 0.2 to 0.3 | – | 16.1 | 27.3 | – | – | – | – | –
6 | CC#CC(CC(=O)O)c1ccc(OCc2cccc(C3=CCC(=O)CC3)c2)cc1 (stereo not shown) [Example 4, 3-(4-(3-(4-oxocyclohex-1-enyl)benzyloxy)phenyl)hex-4-ynoic acid] | 45.4 | 0 | 41.5 | > 0.3 | – | 19.3 | 35 | – | – | – | – | –
7 | CC#CC(CC(=O)O)c1ccc(OCc2ccc(C3=CCC4(CC3)OCCO4)cc2)cc1 (stereo not shown) [Example 3] | – | 0 | – | > 0.3 | – | – | – | – | 19.4 | 21.1 | 6 | 33.1

The remaining lines, values ahead:

Row | inhibition at 30 min, 10 µM [1, 8] [%] | inhibition at 15 min, 10 µM [2] [%] | inhibition at 1.5 h, 10 µM [3, 9] [%] | EC50 ([4]; read-out: EC50) [µM] | EC50 ([4]; values in text, read-out: EC50, concentration promoting activation of GPR40 protein by 50%) [µM] | inhibition at 1 h, 10 µM [5, 10] [%] | inhibition at 30 min, 10 µM [6, 11] [%] | EC50 [7] [µM] | inhibition at 30 min, 10 µM [1, 12] [%] | inhibition at 1.5 h, 10 µM [3, 13] [%] | inhibition at 1 h, 10 µM [5, 14] [%] | inhibition at 30 min, 10 µM [6, 15] [%] | SMILES
8 | 19.5 | 9.7 | 18.4 | 0.2 to 0.3 | – | 17.9 | 0 | – | – | – | – | – | CC#C[C@@H](CC(=O)O)c1ccc(OCc2ccc(CN3CCN(c4ccc(OC)cc4)CC3)cc2)cc1 [Example 40, (S)-3-(4-(4-((4-(4-methoxyphenyl)piperazine-1-yl)methyl)benzyloxy)phenyl)hex-4-ynoic acid]
9 | 10.8 | 16.6 | 0 | > 0.3 | – | 1.8 | 11.5 | – | – | – | – | – | CC#C[C@@H](CC(=O)O)c1ccc(OCc2ccc(CN3CCN(c4ccc(OCCCS(C)(=O)=O)cc4)CC3)cc2)cc1 [Example 36, (S)-3-(4-(4-((4-(4-(3-(methylsulfonyl)propoxy)phenyl)piperazine-1-yl)methyl)benzyloxy)phenyl)hex-4-ynoic acid]
10 | 9.7 | 0.7 | 26.7 | 0.2 to 0.3 | – | 18.2 | 0 | – | – | – | – | – | CC#C[C@@H](CC(=O)O)c1ccc(OCc2ccc(CN3CCN(c4ccc(OCOC)cc4)CC3)cc2)cc1 [Example 29, (S)-3-(4-(4-((4-(4-(methoxymethoxy)phenyl)piperazine-1-yl)methyl)benzyloxy)phenyl)hex-4-ynoic acid]
11 | – | 2.2 | – | – | – | – | – | – | 13.2 | 34.4 | 15.6 | 18.1 | CC#C[C@@H](CC(=O)O)c1ccc(OCc2ccc(CN3Cc4ccccc4C3)cc2)cc1 [Example 38, L-lysine (S)-3-(4-(4-(isoindoline-2-ylmethyl)benzyloxy)phenyl)hex-4-ynoate]
